Experimental findings from patent US20100010060A1, “Isoindolin-1-One-, Isoindolin-3-One- and Isoindolin-1,3-Dione-Derivatives and Use Thereof” (Bayer Healthcare AG, priority 2006, published 2010) are described below.

In this assay the target is human factor Xa (FXa) (Homo sapiens, UniProt P00742). Description: Determination of the factor Xa inhibition (chromogenic substrate). Format: biochemical. The settings on record: human FXa 0.5 nmol/l, 150 μmol/l Pefachrome FXa, 25° C., pH 8.3, extinction at 405 nm. As to the method:
a.1) Determination of the Factor Xa Inhibition:
The enzymatic activity of human factor Xa (FXa) is measured using the conversion of a chromogenic substrate specific for FXa. Factor Xa cleaves p-nitroaniline from the chromogenic substrate. The determinations are carried out in microtitre plates as follows:
The test substances, in various concentrations, are dissolved in DMSO and incubated for 10 minutes at 25° C. with human FXa (0.5 nmol/l dissolved in 50 mmol/l of Tris buffer [C,C,C-tris(hydroxymethyl)aminomethane], 150 mmol/l of NaCl, 0.1% BSA [bovine serum albumin], pH=8.3). Pure DMSO is used as control. The chromogenic substrate (150 μmol/l of Pefachrome® FXa from Pentapharm) is then added. After an incubation time of 20 minutes at 25° C., the extinction at 405 nm is determined.

Chain of human factor Xa (FXa) (P00742 235-488 limits assumed): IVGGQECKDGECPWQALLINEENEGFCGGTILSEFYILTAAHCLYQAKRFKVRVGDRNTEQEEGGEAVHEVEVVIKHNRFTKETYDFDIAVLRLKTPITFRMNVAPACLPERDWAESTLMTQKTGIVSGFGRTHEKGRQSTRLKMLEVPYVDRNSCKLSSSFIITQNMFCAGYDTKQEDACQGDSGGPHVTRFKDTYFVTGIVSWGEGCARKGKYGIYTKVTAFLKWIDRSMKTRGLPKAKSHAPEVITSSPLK
Chain of human factor Xa (FXa) (P00742 41-179 partner limits assumed): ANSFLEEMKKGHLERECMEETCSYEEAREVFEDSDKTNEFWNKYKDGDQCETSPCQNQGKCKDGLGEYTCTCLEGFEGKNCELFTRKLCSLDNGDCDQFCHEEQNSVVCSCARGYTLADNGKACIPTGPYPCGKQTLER

As a reminder, the IC50 is the concentration needed to halve the response being measured. Lower therefore signals higher potency. Regarding `N=C1OCCN1c1cccc(CN2Cc3cccc(NC(=O)c4ccc(Cl)s4)c3C2=O)c1` [Example 5, 5-Chloro-N-{2-[3-(2-imino-1,3-oxazolidin-3-yl)benzyl]-3-oxo-2,3-dihydro-1H-isoindol-4-yl}-thiophene-2-carboxamide methanesulphonate], the IC50 is 1.1 nM.
